Source: patent US6489490B1, “2-(2-chlorophenyl)-3,4-dihydro-2h-pyrrol derivatives” (Bayer Aktiengesellschaft, priority 1998, dated 2002)
Like-named read-outs stand apart in the source and are kept apart here.

Assays:
[1] = log P determined by HPLC analysis; assay type: physicochemical
Procedure: log P*=[…] logarithm to base 10 of the […] partition coefficient, determined by HPLC analysis on 125×4.0 mm Kromasil 120 C 18 (5 μm), using water/acetonitrile as mobile phase; flow rate: 1.5 ml/min.

[2] = system: caterpillars of the cotton bollworm (Heliothis armigera); assay: Heliothis armigera test; assay type: in vivo; conditions: concentration of active compound 0.004%, after 6 days, dipped soybean shoots
Procedure: (§1) Solvent: 7 parts by weight of dimethylformamide
(§2) Emulsifier: 1 part by weight of alkylaryl polyglycol ether
(§3) To produce a suitable preparation of active compound, 1 part by weight of active compound is mixed with the stated amounts of solvent and emulsifier, and the concentrate is diluted with emusifier-containing water to the desired concentration.
Soybean shoots (Glycine max) are treated by being dipped into the preparation of active compound of the desired concentration and are populated with caterpillars of the cotton bollworm (Heliothis armigera) while the leaves are still moist.
(§4) After the desired period of time, the kill in % is determined. 100% means that all caterpillars have been killed; 0% means that none of the caterpillars have been killed.

[3] = system: caterpillars of the diamond-back moth (Plutella xylostella); assay: Plutella test; assay type: in vivo; conditions: concentration of active compound 0.004%, after 6 days, dipped cabbage leaves
Procedure: as §1, §2, §3
Cabbage leaves (Brassica oleracea) are treated by being dipped into the preparation of active compound of the desired concentration and are populated with caterpillars of the diamond-back moth (Plutella xylostella) while the leaves are still moist.
as §4

[4] = system: caterpillars of the army-worm (Spodoptera frugiperda); assay: Spodoptera frugiperda test; assay type: in vivo; conditions: concentration of active compound at most 0.1%, after 6 days, dipped cabbage leaves
Procedure: Spodoptera frugiperda Test
as §1, §2, §3
Cabbage leaves (Brassica oleracea) are treated by being dipped into the preparation of active compound of the desired concentration and are populated with caterpillars of the army-worm (Spodoptera frugiperda) while the leaves are still moist.
as §4

[5] = system: larvae of the mustard beetle (Phaedon cochleariae); assay: Phaedon larvae test; assay type: in vivo; conditions: concentration of active compound 0.004%, after 6 days, dipped cabbage leaves
Procedure: Phaedon Larvae Test Solvent: 7 parts by weight of dimethylformamide Emulsifier: 1 part by weight of alkylaryl polyglycol ether To produce a suitable preparation of active compound, 1 part by weight of active compound is mixed with the stated amounts of solvent and emulsifier, and the concentrate is diluted with emusifier-containing water to the desired concentration. Cabbage leaves (Brassica oleracea) are treated by being dipped into the preparation of active compound of the desired concentration and are populated with larvae of the mustard beetle (Phaedon cochleariae) while the leaves are still moist.

[6] = system: all stages of the greenhouse red spider mite (Tetranychus urticae); assay: Tetranychus test (OP-resistant/dip treatment); assay type: in vivo; conditions: concentration of active compound at most 0.1%, after 6 days, dipped bean plants
Procedure: Tetranychus Test (OP-resistant/dip Treatment)
as §1, §2
To produce a suitable preparation of active compound, 1 part by weight of active compound is mixed with the stated amounts of solvent and emulsifier, and the concentrate is diluted with emulsifier-containing water to the desired concentration.
Bean plants (Phaseolus vulgaris) which are heavily infested by all stages of the greenhouse red spider mite (Tetranychus urticae) are dipped into a preparation of the active compound of the desired concentration.
After the desired period of time, the kill in % is determined. 100% means that all spider mites have been killed; 0% means that none of the spider mites have been killed.

[7] = pH 2.3, HPLC, read-out: log P (pH 2.3)

For O=C(c1ccccc1Cl)C1CC(c2ccccc2)N(C(=O)c2ccccc2Cl)C1=O (stereo not drawn) [Example G(II)-20, 1,3-(2-chlorobenzoyl)-5-phenyl-pyrrolidin-2-one], which chromatographic logP ([1]; pH 2.5, read-out: log P (pH 2.5)) is on record?
The chromatographic logP was 3.91.

Which results are given for FC(F)(F)Oc1ccc(-c2ccc(C3CCC(c4ccccc4Cl)=N3)cc2)cc1 (stereo not drawn) [Example I-7]?
kill in % [2]: 100%; kill in % [3]: 100%; kill in % [4]: 100%; kill in % [5]: 100%; kill in % [6]: 100%

Which “log P* (pH 7.5)” value ([1]; pH 7.5, HPLC, Kromasil 120 C 18, water/acetonitrile) does the source give for Clc1ccccc1C1=NC(c2ccccc2)CC1 (stereo not drawn) [Example I-20] here?
The value was 3.6 l.

And the kill in % [6]?
The kill in % was 100%.

With FC(F)C(F)(F)Oc1ccc(-c2ccc(C3CCC(c4ccccc4Cl)=N3)cc2)cc1 (stereo not drawn) [Example I-43] as the molecule, how does the chromatographic logP [1, 7] read?
The chromatographic logP was 4.01.

For CC(C)(C)OC(=O)N1C(=O)CCC1c1ccc(-c2ccc(OC(F)(F)C(F)F)cc2)cc1 (stereo not drawn) [Example IX-43], which chromatographic logP [1, 7] is on record?
Its chromatographic logP is 3.96.

Which chromatographic logP [1, 7] does the source give for CC(C)(C)OC(=O)NC(CCC(=O)c1ccccc1Cl)c1ccc(-c2ccc(OC(F)(F)C(F)F)cc2)cc1 (stereo not drawn) [Example VIII-43] here?
The chromatographic logP was 4.94.

With O=C1CCC(c2ccc(-c3ccc(OC(F)(F)C(F)F)cc3)cc2)N1 (stereo not drawn) [Example XI-43] as the molecule, how does the chromatographic logP [1, 7] read?
Its chromatographic logP is 2.79.
